# Patent EP4722203A1, “3,4-DIHYDROPHTHALAZIN-1(2H)-ONE DERIVATIVE, AND PREPARATION METHOD THEREFOR AND USE THEREOF” (Academy of Military Medical Sciences, priority 2023, dated 2024)
# How the values were obtained:
# Format in all cases: cell-based
# RPMI-8226 cells = assay: Antiproliferative activity, CCK-8 assay; conditions: Homo sapiens, 144 hours incubation, CCK-8, absorbance at 450 nm
# [1] = system: RPMI-8226-pomalidomide-R cells; assay: Antiproliferative activity against resistant cells, CCK-8 assay; conditions: Homo sapiens, 144 hours incubation
# Procedure: (§1) In this example, lenalidomide-resistant human multiple myeloma cells, including NCI-H929 (NCI-H929-Lenalidomide-R) and RPMI-8226 (RPMI-8226-Lenalidomide-R), and pomalidomide-resistant human multiple myeloma cells, including NCI-H929 (NCI-H929-pomalidomide-R) and RPMI-8226 (RPMI-8226-pomalidomide-R), were selected as cell models to determine the inhibitory activity of compound I-8 of the present invention against the proliferation of the resistant cells.
# (§2) • ① I-8 was dissolved in DMSO to prepare a 10 mM stock solution. Compounds used within three months should be stored at room temperature in a desiccator; others could be stored at -20°C for long-term storage. • ② The I-8 stock solution and the reference compounds lenalidomide and pomalidomide were all diluted with DMSO. Their initial concentrations were 10 µM. In the experiments of lenalidomide-resistant human multiple myeloma cells (NCI-H929 (NCI-H929-Lenalidomide-R) and RPMI-8226 (RPMI-8226-Lenalidomide-R) and pomalidomide-resistant human multiple myeloma cells (NCI-H929 (NCI-H929-pomalidomide-R) and RPMI-8226 (RPMI-8226-pomalidomide-R), 3-fold serial dilution with 11 concentration points was performed, with the lowest concentration of […]. The resulting solutions were shaken on a shaker for 5 minutes.
# (§3) • ① The NCI-H929-Lenalidomide-R, RPMI-8226-Lenalidomide-R, NCI-H929-pomalidomide-R, and RPMI-8226-pomalidomide-R cells in logarithmic growth phase were inoculated in a 96-well plate, 20,000 to 30,000 cells per well, and the plate was pre-cultured for 24 hours in an incubator (at 37°C and 5% CO2). • ® The culture medium in the plate was replaced, and the compounds and the positive controls with corresponding concentrations were added to the plated at a volume of 50 µL. • ③ The plate was incubated for 144 hours in an incubator, then 15 µL of CCK-8 solution was added to each well, and the plate was incubated in the incubator for another 1-4 hours. • ④ The absorbance at 450 nm was measured using a microplate reader.
# (§4) • ① Calculating % Inhibition: [formula] • ② Calculating IC50 value of compound and plotting dose-response curve: The IC50 value was calculated by fitting the % Inhibition and the logarithm of compound concentration to a nonlinear regression (dose response-variable slope) by using GraphPad 6.0. Y = Bottom + (Top−Bottom)/(1+10^(∧)((LogIC50−X)*HillSlope)) [formula] X: log of inhibitor concentration; Y: % Inhibition.
# (§5) After calculating % Inhibition, a dose-response curve was plotted with the logarithm of the test compound concentration as the x-axis and the average cell viability as the y-axis, and the IC50 value was obtained by fitting.
# [2] = system: RPMI-8226-Lenalidomide-R cells; assay: as above; conditions: Homo sapiens, 144 hours incubation
# Procedure: as §1, §2, §3, §4, §5
# [3] = system: NCI-H929-Lenalidomide-R cells; assay: as above; conditions: Homo sapiens, 144 hours incubation
# Procedure: as §1, §2, §3, §4, §5
IC50 (RPMI-8226 cells) [µM],IC50 [1] [µM],IC50 [2] [µM],IC50 [3] [µM],SMILES
0.308,0.314,0.246,0.055,CN1Cc2c(NCc3ccc(CN4CCN(c5ccc(C#N)c(F)c5)CC4)cc3)cccc2C(=O)N1C1CCC(=O)NC1=O (centres unmarked) [I-8]
0.729,> 100,> 100,> 100,"Nc1cccc2c1C(=O)N(C1CCC(=O)NC1=O)C2=O (centres unmarked) [Pomalidomide, reference compound]"
